# Laboratory results as given in US10712349B2, “Circulating KIM-1 levels for detection of pathologies associated with injury to, or cancer of, the kidney” (THE BRIGHAM AND WOMEN'S HOSPITAL, INC., priority 2014, dated 2020).
# Entries after “also recorded” stand apart in the source; their conditions may differ.
# Tests used:
# Male Sprague-Dawley rats = test: Gentamicin-induced nephrotoxicity in rats; format: in vivo, rat; details: for kidney histopathologic analysis: kidney tissue collected day 11
# Protocol: Rats were provided with free access to food and water and subjected to a 12-hour light and dark cycle. Rats were euthanized on day 11, and urine, plasma, and tissue samples were collected and analyzed. Tissue samples were fixed in 10% neutral buffered formalin or snap frozen. For histologic assessment, […] paraffin sections were prepared and stained with hematoxylin and eosin. The rat studies were undertaken in accordance with criteria outlined in a license granted under the Animals (Scientific Procedures) Act 1986 and approved by the University of Liverpool Animal Ethics Committee.
# (§1) Microbead-based assays for rodent and human plasma and serum KIM-1 were developed, and extensive validation of the assays were performed using previously described approaches.^24 Urinary KIM-1 in rodents and humans was measured using microbead based assays as described previously.5,7,25,26 Capture antibodies (MAB 1817 for mouse, AF1750 for human [R&D Systems]), MARKE^25 antibody for rat (developed at Brigham and Women's Hospital) were conjugated with COOH polystyrene beads (Bio-Rad) with an amine coupling kit (Bio-Rad) using N-hydroxysuccinamide-1-ethyl-3-(3-dimethylaminopropyl) carbodiimide chemistry according to the manufacturer's protocol. Approximately 6000 beads in […] of sample diluent buffer (0.1M HEPES, 0.1M NaCl, 0.1% Tween-20, and 1% BSA; pH, 7.4; filter sterilized) were incubated with […] of sample or recombinant KIM-1 protein (1817-TM-050-CF for mice, 1750-TM for humans [R&D systems]), and KIM-FC for rats [developed at Brigham and Women's Hospital]) for 45 minutes. After incubation, beads were washed three times with PBS with Tween and incubated with biotinylated anti-KIM-1 detection antibody (BAF 1817 for mice, BAF 1750 for humans [R&D Systems]) and MARKE-2 for rats [developed at Brigham and Women's Hospital]) for 30 minutes. Beads were washed again with PBS with Tween and incubated for 15 minutes with the streptavidin-phycoerythrin solution (Invitrogen). The signal from the fluorochrome, which is directly proportional to the amount of antigen bound at the microbead surface, is captured using the Bio-Plex system (Bio-Rad). Data were interpreted using a five parametric logistic regression analysis.
# The inventors also investigated whether plasma KIM-1 levels can serve as a biomarker in gentamicin-induced kidney injury in a different rodent species, rats. […] Plasma, urine, and kidney tissue were collected on day 11. The extent of kidney damage was assessed by histo-pathologic analysis and changes in plasma creatinine. […] The lumens of the tubules were filled with casts and dead cells. […] Thus, plasma KIM-1 is a sensitive marker of ischemia and toxin-induced injury to the proximal tubule in mice and rats.
# male BALB/c mice = test: Liver injury in mice (CCl4), specificity of plasma KIM-1 to renal injury; format: in vivo, mouse; details: 48 hours
# Protocol: As controls, male BALB/c mice were injected intraperitoneally once with 0.5 ml/kg of 10% CC14 in vegetable oil (n=5) or vegetable oil alone (vehicle, n=5), as previously de-scribed.^21 Forty-eight hours after CCl4 administration, mice were euthanized and urine, plasma, and tissue samples were collected and analyzed.
# as §1
# To evaluate the specificity of plasma KIM-1 to renal injury, mice were treated with carbon tetrachloride (CCl4), a known hepatotoxicant. […] Thus, plasma KIM-1 was not affected by liver injury.
# [1] = single dose of 10% CCl4, 0.5 ml/kg
Compound,kidney histopathologic analysis (Male Sprague-Dawley rats; 50 mg/kg gentamicin per day intraperitoneally for 10 days),"urinary KIM-1 levels (normalized to urine creatinine) (Male Sprague-Dawley rats; 10 daily doses of 50 or 200 mg/kg, day 11)","kidney sections, hematoxylin and eosin staining (Male Sprague-Dawley rats; 50 or 200 mg/kg daily for 10 days, euthanized day 11 (FIG. 1H))",kidney histopathologic analysis (Male Sprague-Dawley rats; daily doses of 200 mg/kg gentamicin for 10 days),"liver histopathology (male BALB/c mice; single dose of 10% CCl4, 0.5 ml/kg intraperitoneally)",kidney morphology (histopathology) (male BALB/c mice; [1]),plasma KIM-1 (male BALB/c mice; [1]),plasma creatinine (male BALB/c mice; [1]),urinary KIM-1 (male BALB/c mice; [1])
gentamicin,"brush border loss, focal tubular necrosis, and interstitial inflammation",significantly increased,"loss of brush border, necrosis, and sloughing of cells into the tubular lumen",extensive diffuse cell necrosis,,,,,
"ClC(Cl)(Cl)Cl [CCl4, carbon tetrachloride]",,,,,liver necrosis,No histopathologic changes,no significant alterations; also recorded: not changed,no significant alterations,no significant alterations
